Experiments:
[1] = test system: Neurosphere cells (TS603); assay: Cellular assay for IDH1m R132H inhibitors, 2-HG by LC-MS in neurosphere cells (TS603); assay type: cell-based; conditions: 2-HG in media at 48 hours
Outline: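 TS603 neurosphere cells in NeuroCult medium were dosed with compound (0.25% DMSO final) at 37 C, 5% CO2. After 48 hours, medium 2-HG was measured by LC-MS. At 72 hours, viability was read by CellTiter-Glo luminescence.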

[2] = test system: HT1080 cells; assay: Cellular assay for IDH1m R132C inhibitors, 2-HG by LC-MS in HT1080 cells; assay type: cell-based; conditions: Homo sapiens, HT-1080
Description: The following describes the experimental procedures that can be used to obtain data on column 5 of Table 4.
Cells (HT1080 or U87MG) are grown in T125 flasks in DMEM containing 10% FBS, 1× penicillin/streptomycin and 500 ug/mL G418 (present in U87MG cells only). They are harvested by trypsin and seeded into 96 well white bottom plates at a density of 5000 cell/well in 100 ul/well in DMEM with 10% FBS. No cells are placed in columns 1 and 12. Cells are incubated overnight at 37° C. in 5% CO2. The next day test compounds are made up at 2× the final concentration and 100 ul are added to each cell well. The final concentration of DMSO is 0.2% and the DMSO control wells are plated in row G. The plates are then placed in the incubator for 48 hours. At 48 hours, 100 ul of media is removed from each well and analyzed by LC-MS for 2-HG concentrations. The cell plate is placed back in the incubator for another 24 hours. At 72 hours post compound addition, 10 mL/plate of Promega Cell Titer Glo reagent is thawed and mixed. The cell plate is removed from the incubator and allowed to equilibrate to room temperature. Then 100 ul of Promega Cell Titer Glo reagent is added to each well of media. The cell plate is then placed on an orbital shaker for 10 minutes and then allowed to sit at room temperature for 20 minutes. The plate is then read for luminescence with an integration time of 500 ms.
HT1080 cells are maintained in RPMI containing 10% FBS, 1× penicillin/streptomycin. […] The next day compounds are prepared in 100% DMSO and then diluted in media for a final concentration of 0.2% DMSO. Media is removed from the cell plates and 200 μL of the compound dilutions are added to each well. […] The cell plates are then allowed to incubate another 24 hours.

[3] = molecular target: IDH2 R140Q (Homo sapiens (Human), UniProt P48735, R140Q); assay: In vitro assay for IDH2m R140Q inhibitors, cofactor depletion assay; assay type: biochemical; conditions: IDH2 R140Q enzyme
Outline: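 Remaining cofactor measured fluorimetrically: diaphorase/resazurin Stop Mix […], halting the reaction. Before that, mutant enzyme and compound sat 1 h at RT, then substrate mix (4 μM NADPH, 1.6 mM α-KG) was added for 16 h at RT.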

[4] = molecular target: IDH1 wt/IDH1 R132H heterodimer (Homo sapiens (Human), UniProt O75874, R132H); assay: In vitro assay for IDH1m R132H inhibitors, IDH1 wt/IDH1 R132H heterodimer, NADPH depletion (diaphorase/resazurin); assay type: biochemical; conditions: IDH1 wt/R132H heterodimer, NADPH/NADP, not saturated; read-out: IDH1 wt/R132H NADPH/NADP IC50 not saturated
Outline: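 Read-out is NADPH left after α-KG reduction to 2-HG, measured via resorufin fluorescence after 5 min diaphorase/resazurin step at 25° C. Enzyme is sf9-expressed IDH1wt-his/IDH1R132H-flag heterodimer, pre-incubated 1 hr at room temperature with compound and cofactor. IC50s from DMSO stocks diluted 1:50.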

[5] = molecular target: IDH1-R132H homodimer enzyme (Homo sapiens (Human), UniProt O75874, R132H); assay: In vitro assay IDH1-R132H homodimer, NADPH depletion assay with NADPH/NADP preincubation; assay type: biochemical; conditions: 5 μM NADPH and 37.5 μM NADP
Description: The following describes the experimental procedures that can be used to obtain data on columns 3 and 5 of Table 5.
A test compound is prepared as 10 mM stock in DMSO and diluted to 50× final concentration in DMSO, for a 50 μl reaction mixture. IDH enzyme activity converting alpha-ketoglutarate to 2-hydroxyglutaric acid is measured using a NADPH depletion assay. In the assay the remaining cofactor is measured at the end of the reaction with the addition of a catalytic excess of diaphorase and resazurin, to generate a fluorescent signal in proportion to the amount of NADPH remaining. […] The reaction is started with the addition of 10 μl of Substrate Mix ([…], 5 mM alpha-ketoglutarate, in Assay Buffer) and the mixture is incubated for 60 minutes at room temperature.

[6] = test system: U87MG pLVX-IDH2 R140Q-neo cells; assay: U87MG pLVX-IDH2 R140Q-neo cell based assay, 2-HG by LC-MS; conditions: Homo sapiens, U-87 MG

Sequence of IDH2 R140Q (P48735 40-452 R140Q): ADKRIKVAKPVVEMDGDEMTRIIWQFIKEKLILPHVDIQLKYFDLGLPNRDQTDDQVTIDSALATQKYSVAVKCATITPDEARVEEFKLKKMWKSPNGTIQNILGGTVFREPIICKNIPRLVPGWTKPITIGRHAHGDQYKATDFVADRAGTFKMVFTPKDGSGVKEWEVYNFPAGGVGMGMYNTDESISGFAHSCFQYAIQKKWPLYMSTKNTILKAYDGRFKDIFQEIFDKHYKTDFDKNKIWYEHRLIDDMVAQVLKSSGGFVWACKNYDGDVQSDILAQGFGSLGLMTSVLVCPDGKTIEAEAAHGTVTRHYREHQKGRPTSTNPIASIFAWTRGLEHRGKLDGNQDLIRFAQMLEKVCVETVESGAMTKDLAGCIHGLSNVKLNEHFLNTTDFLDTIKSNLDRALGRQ
Sequence of IDH1-R132H homodimer enzyme (O75874 whole entry R132H): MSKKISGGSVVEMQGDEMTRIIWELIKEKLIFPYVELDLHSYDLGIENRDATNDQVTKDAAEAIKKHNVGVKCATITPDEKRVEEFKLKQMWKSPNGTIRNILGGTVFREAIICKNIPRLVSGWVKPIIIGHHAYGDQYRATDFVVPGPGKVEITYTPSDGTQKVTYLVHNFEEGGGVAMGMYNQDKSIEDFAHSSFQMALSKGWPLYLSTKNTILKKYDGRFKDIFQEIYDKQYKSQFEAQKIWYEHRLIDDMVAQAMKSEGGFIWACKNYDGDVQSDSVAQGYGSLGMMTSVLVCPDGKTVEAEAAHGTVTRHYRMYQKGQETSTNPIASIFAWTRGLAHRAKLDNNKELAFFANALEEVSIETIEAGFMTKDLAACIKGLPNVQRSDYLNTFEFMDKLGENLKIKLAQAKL
Sequence of IDH1 wt/IDH1 R132H heterodimer (O75874 whole entry R132H): as above
Sequence of IDH1 wt/IDH1 R132H heterodimer (O75874 whole entry, stated change not applied): as the sequence (O75874 whole entry R132H) above, with H132R counted along it

SMILES | IC50 [1] [nM] | IC50 [2] [nM] | IC50 [3] [nM] | IC50 [4] [nM] | IC50 [5] [nM] | IC50 [6] [nM]
N#Cc1cc(F)cc(Nc2nc(NC3CCC(F)(F)C3)nc(-n3ccc(C(F)(F)F)n3)n2)c1 (stereo not drawn) [Compound 112] | < 50 | 100 to 1000 | < 50 | < 50 | < 50 | < 50
FC1(F)CCC(Nc2nc(NC3CC(F)(F)C3)nc(-c3cccc(C(F)(F)F)n3)n2)CC1 [Compound 143] | < 50 | 50 to 100 | < 50 | < 50 | < 50 | < 50
N#Cc1cc(Nc2nc(NC3CCC(F)(F)C3)nc(-n3ccc(C(F)(F)F)n3)n2)ccn1 (stereo not drawn) [Compound 179] | < 50 | 100 to 1000 | < 50 | < 50 | < 50 | < 50
CC(F)(F)c1nc(-c2nc(NC3CC(F)(F)C3)nc(NC3CC(F)(F)C3)n2)cs1 [Compound 209] | < 50 | 100 to 1000 | < 50 | < 50 | 100 to 1000 | < 50
FC(F)c1csc(-c2nc(NC3CCC(F)(F)CC3)nc(NC3CCC(F)(F)CC3)n2)n1 [Compound 205] | < 50 | 50 to 100 | < 50 | < 50 | 100 to 1000 | < 50
N#Cc1cc(F)cc(Nc2nc(NC3CC(F)(F)C3)nc(-n3ccc(C(F)(F)F)n3)n2)c1 [Compound 140] | < 50 | 100 to 1000 | < 50 | < 50 | < 50 | < 50
CC[C@H](Nc1nc(N[C@@H](CC)C(F)(F)F)nc(-c2cccc(Cl)n2)n1)C(F)(F)F [Compound 180] | < 50 | < 50 | 50 to 100 | < 50 | < 50 | 100 to 1000
CC[C@H](Nc1nc(N[C@H](CC)C(F)(F)F)nc(-c2cccc(Cl)n2)n1)C(F)(F)F [Compound 196] | < 50 | 50 to 100 | 50 to 100 | < 50 | < 50 | 100 to 1000
FC1(F)CC(Nc2nc(NC3CC(F)(F)C3)nc(-c3ccnc(C(F)(F)F)n3)n2)C1 [Compound 251] | < 50 | 100 to 1000 | < 50 | 50 to 100 | 100 to 1000 | 100 to 1000
FC1(F)CCC(Nc2nc(NC3CCC(F)(F)C3)nc(-c3ccnc(C(F)(F)F)n3)n2)C1 (stereo not drawn) [Compound 194] | < 50 | 50 to 100 | 50 to 100 | < 50 | 100 to 1000 | 50 to 100
FC(F)(F)CNc1nc(Nc2ccnc(C(F)(F)F)c2)nc(-c2cccc(C(F)(F)F)n2)n1 [Compound 232] | < 50 | > 1000 | < 50 | < 50 | 100 to 1000 | < 50
N#CC1(c2cc(Nc3nc(NC4CC(F)(F)C4)nc(-n4ccc(C(F)(F)F)n4)n3)ccn2)CC1 [Compound 169] | < 50 | < 50 | < 50 | < 50 | < 50 | < 50
FC1(F)CCCC1Nc1nc(NC2CCCC2(F)F)nc(-c2cccc(Cl)n2)n1 (stereo not drawn) [Compound 157] | < 50 | < 50 | 50 to 100 | < 50 | < 50 | 50 to 100
